Active and inactive are the calls of the source. The rule behind the calls is not given here.
Experiments:
[1] = target: T1, Spermidine synthase (Plasmodium falciparum, UniProt Q9NFS5); test: Inhibition of Plasmodium falciparum spermidine synthase
T1 sequence (Q9NFS5 whole entry): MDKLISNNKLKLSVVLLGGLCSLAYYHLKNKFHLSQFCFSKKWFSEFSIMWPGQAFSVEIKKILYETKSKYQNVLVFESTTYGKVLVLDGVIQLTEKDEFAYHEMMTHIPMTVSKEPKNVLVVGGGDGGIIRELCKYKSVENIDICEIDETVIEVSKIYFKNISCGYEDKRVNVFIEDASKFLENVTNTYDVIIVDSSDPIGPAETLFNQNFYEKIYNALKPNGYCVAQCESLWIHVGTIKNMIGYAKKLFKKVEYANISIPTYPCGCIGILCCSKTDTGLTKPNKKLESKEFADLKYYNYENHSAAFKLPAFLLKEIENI

[2] = system: Plasmodium falciparum; test: Growth inhibition of Plasmodium falciparum; format: functional, organism-based
[3] = target: T2, Spermidine synthase (Plasmodium falciparum) (UniProt Q9NFS5); test: Binding affinity to Plasmodium falciparum spermidine synthase by saturation transfer difference-NMR experiment
T2 sequence (whole entry): T1 sequence (Q9NFS5 whole entry)

[4] = target: T2, Spermidine synthase (Plasmodium falciparum); test: Binding affinity to Plasmodium falciparum spermidine synthase by saturation transfer difference-NMR experiment relative to methylthioadenosine

Compound: CC1CCC(N)CC1 (centres undefined)
- IC50 [1]: 1.4 µM
- IC50 [2]: 34 µM

Compound: N=c1c(N)c(O)ncn1CC(=O)c1ccc(I)cc1
- Activity [3]: inactive

Compound: CCCCc1nnc(NC(=O)CSc2nnc[nH]2)s1
- Activity [3]: inactive

Compound: Nc1nc(N)nc(SCC(=O)NCc2ccc(F)cc2)n1
- Activity [3]: inactive

Compound: O=C(CSc1nnc[nH]1)c1ccc2c(c1)OCCO2
- Activity [3]: inactive

Compound: NCCCCCc1nc2ccccc2[nH]1
- Activity [4]: Active

Compound: NCCCCCCCNC(=O)Cc1ncc(C(F)(F)F)cc1Cl
- Activity [3]: inactive

Compound: CSC[C@H]1O[C@@H](n2cnc3c(N)ncnc32)[C@H](O)[C@@H]1O [METHYLTHIOADENOSINE]
- IC50 [1]: 159 µM

Compound: O=C(CSc1cnn[nH]1)Nc1ncccn1
- Activity [3]: inactive

Compound: O=C(C1CCCCN1)N1CCN(Cc2cccnc2)CC1 (centres undefined)
- Activity [3]: inactive

Compound: O=C1NC(=S)NC(=O)C1=CNCCc1cnc[nH]1
- Activity [3]: inactive

Compound: O=C(CSc1nccc(=O)[nH]1)NCc1ccco1
- Activity [3]: inactive

Compound: O=C(CSc1nnc[nH]1)Nc1nccs1
- Activity [3]: inactive

Compound: Nc1nnc(SCC(=O)NCC2CN(Cc3ccccc3)CCO2)s1 (centres undefined)
- Activity [3]: inactive

Compound: Cn1c(SCC(=O)c2ccc3[nH]c(=O)oc3c2)nnc1-c1ccncc1
- Activity [3]: inactive

Compound: NCCCCCc1nnc(SCC(=O)Nc2cccc(Cl)c2)o1
- Activity [3]: inactive

Compound: NC(=O)c1ncn([C@@H]2O[C@H](CO)[C@@H](O)[C@H]2O)n1
- Activity [3]: inactive

Compound: NC(=O)CSc1nc2ncnc(N)c2[nH]1
- Activity [3]: Active
- Activity [4]: Active

Compound: Nc1nnc(SCC(=O)Nc2cccc(Oc3ccccc3)c2)[nH]1
- Activity [3]: Active
- Activity [4]: inactive

Compound: O=C(c1ccc2[nH]cnc2c1)N1CCN(C/C=C/c2ccccc2)CC1
- Activity [3]: Active

Compound: O=C(c1ccc2cn[nH]c2c1)N1CCN(c2ccccn2)CC1
- Activity [3]: inactive

Compound: Nc1nnc(SCC(=O)NCc2ccc3c(c2)OCO3)[nH]1
- Activity [3]: inactive

Compound: O=C1C=C(NCCc2c[nH]cn2)CC1
- Activity [3]: inactive

Compound: Nc1ncnc2c1ncn2[C@@H]1O[C@H](CO)[C@@H](O)[C@H]1O
- Activity [3]: Active
- Activity [4]: Active

Compound: NCCSC1CC(=O)N(c2ccc(F)cc2)C1=O (centres undefined)
- Activity [3]: inactive

From ChEMBL document CHEMBL1150259, “Identification of Plasmodium falciparum spermidine synthase active site binders through structure-based virtual screening” (J Med Chem, 2008)
